Results: US10981894B2, “Melanocortin subtype-2 receptor (MC2R) antagonists and uses thereof” (Crinetics Pharmaceuticals, Inc., priority 2018, dated 2021)

target: hMC2 receptor (Homo sapiens, UniProt Q01718); assay: hMC2 membrane binding assay ([125I]ACTH (1-39) Tyr23, SPA); design: scale not given here; settings: crude hMC2R membranes from CRE-bla-CHO-K1 cells expressing hMC2 receptor and hMRAP; [125I]ACTH (1-39) Tyr23 0.2 nM; 1.5 hours at room temperature; read-out: MC2R binding potency
Experimental: Crude membrane fractions are prepared from CRE-bla-CHO-K1 cells stably expressing hMC2 receptor and hMRAP accessory protein (Thermo Fisher). The cells are grown to 85-100% confluence on standard tissue culture dishes in GlutaMax DMEM growth media (Gibco) with following additives: 10% dialyzed FBS (Gemini), 0.1 mM NEAA (Gibco), 25 mM HEPES (Gibco), 5 μg/mL blasticidin (Goldbio), 100 μg/mL zeocin (Invitrogen), 600 μg/mL hygromycin (Goldbio). To prepare membranes, cells are scraped and collected in 1× Dulbecco's phosphate buffered saline (Corning) and then pelleted at 1000 RPM's. The cell pellet is reconstituted in membrane preparation buffer (20 mM HEPES, 6 mM MgCl2 and 1 mM EGTA, protease inhibitor tablets (Pierce) adjusted to pH 7.4), homogenized using a dounce homogenizer, and the resulting membrane fraction is pelleted by centrifugation at 12,000 RPM's. The membrane pellet is resuspended in membrane preparation buffer, snap freezed and stored at −80° C. for later use.
Binding Assay for hMC2 Antagonists Protocol:
The hMC2 membrane binding assay utilizes the following components: radiolabel [^125I]ACTH (1-39) Tyr23 (PerkinElmer), wheatgerm agglutinin coated PVT SPA beads (PerkinElmer), crude hMC2R membranes, and compounds. Briefly hMC2R membranes are incubated with SPA beads in binding assay buffer (50 mM HEPES, 5 mM MgCl2, 1 mM CaCl2, 0.2% BSA, protease inhibitor tablets (Pierce) adjusted to pH7.4) prior to assay initiation. A dose response of compound (the final concentration of compound are typically 0-10,000 nM), SPA membranes, and [^125I]ACTH (1-39) Tyr23 at a final concentration of 0.2 nM is plated in a 96-well assay plate and allowed to incubate 1.5 hours at room temperature. Assay plates are read using a Top Count NXT and Ki values for compounds are determined using a GraphPad Prism 6 non-linear regression analysis.

Chain of hMC2 receptor (Q01718 whole entry): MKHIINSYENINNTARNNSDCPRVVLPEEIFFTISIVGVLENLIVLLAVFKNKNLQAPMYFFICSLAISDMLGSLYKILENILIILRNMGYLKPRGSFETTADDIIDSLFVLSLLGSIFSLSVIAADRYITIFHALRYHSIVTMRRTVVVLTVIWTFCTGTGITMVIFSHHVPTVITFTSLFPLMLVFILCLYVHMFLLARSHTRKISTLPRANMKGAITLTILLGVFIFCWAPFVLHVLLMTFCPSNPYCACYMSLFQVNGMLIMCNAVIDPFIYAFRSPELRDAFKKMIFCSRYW
Chain of hMC2 receptor (Q8TCY5 whole entry partner): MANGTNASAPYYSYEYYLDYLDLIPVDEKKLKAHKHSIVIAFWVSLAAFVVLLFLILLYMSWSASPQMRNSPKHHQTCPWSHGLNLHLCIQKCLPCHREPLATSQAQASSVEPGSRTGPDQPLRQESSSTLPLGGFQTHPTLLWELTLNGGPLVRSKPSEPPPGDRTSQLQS

Ki, < 10 nM:
CCOc1ncccc1-c1ccc(N2CCN(C(=O)c3ccc(Cl)cc3C)C[C@H]2CC)c(C(=O)NCCN)c1 [Compound 1-87, N-(2-aminoethyl)-2-[(2R)-4-(4-chloro-2-methylbenzoyl)-2-ethylpiperazin-1-yl]-5-(2-ethoxypyridin-3-yl)benzamide]
CCOc1ncccc1-c1ccc(N2CCN(C(=O)c3ccc(OC)nc3C(F)(F)F)C[C@H]2CC)c(C(=O)N[C@H]2CNC[C@H]2F)n1 [Compound 1-291, 2′-ethoxy-5-[(2R)-2-ethyl-4-[6-methoxy-2-(trifluoromethyl)pyridine-3-carbonyl]piperazin-1-yl]-N-[(3S,4R)-4-fluoropyrrolidin-3-yl]-[2,3′-bipyridine]-6-carboxamide]
CCOc1ncccc1-c1ccc(N2CCN(C(=O)c3ccc(OC)nc3C(F)(F)F)C[C@H]2CC)c(C(=O)N[C@H]2CN(C)C[C@H]2F)n1 [Compound 1-296, 2′-ethoxy-5-[(2R)-2-ethyl-4-[6-methoxy-2-(trifluoromethyl)pyridine-3-carbonyl]piperazin-1-yl]-N-[(3S,4R)-4-fluoro-1-methylpyrrolidin-3-yl]-[2,3′-bipyridine]-6-carboxamide]
CCOc1ccccc1-c1ccc(N2CCN(C(=O)c3ccc(OC)nc3C(F)(F)F)C[C@H]2CC)c(C(=O)NC2CN(C)C2)n1 [Compound 1-236, 6-(2-ethoxyphenyl)-3-[(2R)-2-ethyl-4-[6-methoxy-2-(trifluoromethyl)pyridine-3-carbonyl]piperazin-1-yl]-N-(1-methylazetidin-3-yl)pyridine-2-carboxamide]
CCOc1ncccc1-c1ccc(N2CCN(C(=O)c3c(F)cc(C)cc3-c3ccc(CN)cc3)C[C@H]2CC)c(C(=O)NCCN)c1 [Compound 1-44, N-(2-aminoethyl)-2-[(2R)-4-[4′-(aminomethyl)-3-fluoro-5-methyl-[1,1′-biphenyl]-2-carbonyl]-2-ethylpiperazin-1-yl]-5-(2-ethoxypyridin-3-yl)benzamide]
CCOc1ncccc1-c1ccc(N2CCN(C(=O)n3ccc4cc(F)cc(C#N)c43)C[C@H]2CC)c(C(=O)N[C@@H]2CCN(C)C2)n1 [Compound 1-438, 5-[(2R)-4-(7-cyano-5-fluoro-1H-indole-1-carbonyl)-2-ethylpiperazin-1-yl]-2′-ethoxy-N-[(3R)-1-methylpyrrolidin-3-yl]-[2,3′-bipyridine]-6-carboxamide]
CCOc1ncccc1-c1ccc(N2CCN(C(=O)C34CCC(C(F)(F)F)(CC3)CC4)C[C@H]2CC)c(C(=O)N[C@@H]2CCNC2)n1 [Compound 1-274, 2′-ethoxy-5-[(2R)-2-ethyl-4-[4-(trifluoromethyl)bicyclo[2.2.2]octane-1-carbonyl]piperazin-1-yl]-N-[(3R)-pyrrolidin-3-yl]-[2,3′-bipyridine]-6-carboxamide]
CCOc1ncccc1-c1ccc(N2CCN(C(=O)c3ccc(F)cc3C(F)F)C[C@H]2CC)c(C(=O)N[C@@H]2CCNC2)n1 [Compound 1-278, 5-[(2R)-4-[2-(difluoromethyl)-4-fluorobenzoyl]-2-ethylpiperazin-1-yl]-2′-ethoxy-N-[(3R)-pyrrolidin-3-yl]-[2,3′-bipyridine]-6-carboxamide]
CCOc1ncccc1-c1ccc(N2CCN(C(=O)C3(c4ccc(F)cc4F)CCC3)C[C@H]2CC)c(C(=O)N[C@@H]2CCN(C)C2)n1 [Compound 1-371, 5-[(2R)-4-[1-(2,4-difluorophenyl)cyclobutanecarbonyl]-2-ethylpiperazin-1-yl]-2′-ethoxy-N-[(3R)-1-methylpyrrolidin-3-yl]-[2,3′-bipyridine]-6-carboxamide]
CCOc1ncccc1-c1ccc(N2CCN(C(=O)N3CCCC[C@H]3C(F)(F)F)C[C@H]2CC)c(C(=O)N[C@@H]2CCN(C)C2)n1 [Compound 1-427, 2′-ethoxy-5-[(2R)-2-ethyl-4-[(2S)-2-(trifluoromethyl)piperidine-1-carbonyl]piperazin-1-yl]-N-[(3R)-1-methylpyrrolidin-3-yl]-[2,3′-bipyridine]-6-carboxamide]
